Columns and labels:
[1] = target: T1, dog ETA receptors (Canis lupus familiaris, UniProt Q5KSU9); experiment: [125I]ET-1 binding, membranes from dog cardiac ventricle
T1 construct: from tissue
T1 sequence (Q5KSU9 21-426): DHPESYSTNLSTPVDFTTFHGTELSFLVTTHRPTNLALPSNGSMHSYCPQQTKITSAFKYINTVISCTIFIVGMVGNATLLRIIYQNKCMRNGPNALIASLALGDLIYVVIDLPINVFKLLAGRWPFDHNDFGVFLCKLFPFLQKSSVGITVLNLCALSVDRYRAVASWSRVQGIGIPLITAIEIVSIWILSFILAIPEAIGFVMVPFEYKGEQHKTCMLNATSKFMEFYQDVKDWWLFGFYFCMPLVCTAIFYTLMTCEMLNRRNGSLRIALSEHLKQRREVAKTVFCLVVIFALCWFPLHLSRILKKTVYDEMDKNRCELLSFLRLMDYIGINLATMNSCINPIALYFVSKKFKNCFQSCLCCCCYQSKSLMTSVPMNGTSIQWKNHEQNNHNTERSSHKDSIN
Source text: Relative binding activities are given below in TABLE 3.

[2] = Food effect (high-fat meal) single-dose study in healthy subjects; type: in vivo, human; settings: for Tmax: human, plasma, oral, 150 mg
[3] = system: acute hypoxia-induced pulmonary hypertension; experiment: Pulmonary hypertension in response to acute hypoxia in rats; type: in vivo, rat
Description: Exposure to hypoxia produces an acute pulmonary hypertensive response in the rat. […] The hypothesis has since been tested through blockade of the hypertensive response with several ET antagonists. The antihypertensive dose of CI-1034 was determined in response to acute hypoxia.
Heparinized plasma samples were collected 10 minutes after the final MPAP measurement was made.

[4] = system: bET-1 pressor response (ETA receptors); experiment: Blockade of bET-1 induced pressor responses in rats; type: in vivo, rat
Source text: (§1) Vehicle-treated rats responded to the bET-1 challenge with peak increases in mean arterial pressure (MAP) of 58±2 mm Hg (N=7); baseline MAP was 82±5 mm Hg.

[5] = Plasma CI-1034 concentrations in anesthetized dogs; type: in vivo; settings: intravenous, dog; for concentration at 15 min: 15 minutes postdose; for concentration at 30 min: 30 minutes postdose; for concentration at 60 min: 60 minutes postdose
[6] = system: healthy subjects; experiment: Tolerance and safety in Phase 1 studies in healthy subjects; type: in vivo, human
[7] = Dissociation constant by potentiometric titration in water; type: physicochemical; settings: carboxylic acid group, read-out: apparent pKa
[8] = CI-1034 plasma concentration after oral dose in rats; type: in vivo; settings: rat, 24 hours after 30 mg/kg oral dose
Source text: as §1

[9] = system: anesthetized dogs; experiment: Pulmonary function in anesthetized dogs; type: in vivo, dog
Description: (§2) Each animal received each treatment and served as its own control, with 7 days between treatments. […] Pulmonary function parameters were evaluated for 60 minutes after each dose, and included minute volume, respiratory rate, resistance, compliance, peak inspiratory and expiratory volumes, and tidal volume. Indirect blood pressure measurements were made periodically throughout the pulmonary data collection period since endothelin receptor antagonists are known to induce hypotension.
(§3) Plasma concentration in this dog 5 minutes postdose was 1960 μg/mL.

[10] = Plasma CI-1034 concentrations in anesthetized dogs; type: in vivo, dog; settings: for concentration at 5 min: plasma, intravenous
Description: as §2, §3

[11] = target: T2, ETA receptor (Oryctolagus cuniculus, UniProt A5A8K3); experiment: ET-1 induced contraction in isolated rabbit femoral artery
T2 sequence (A5A8K3 21-427): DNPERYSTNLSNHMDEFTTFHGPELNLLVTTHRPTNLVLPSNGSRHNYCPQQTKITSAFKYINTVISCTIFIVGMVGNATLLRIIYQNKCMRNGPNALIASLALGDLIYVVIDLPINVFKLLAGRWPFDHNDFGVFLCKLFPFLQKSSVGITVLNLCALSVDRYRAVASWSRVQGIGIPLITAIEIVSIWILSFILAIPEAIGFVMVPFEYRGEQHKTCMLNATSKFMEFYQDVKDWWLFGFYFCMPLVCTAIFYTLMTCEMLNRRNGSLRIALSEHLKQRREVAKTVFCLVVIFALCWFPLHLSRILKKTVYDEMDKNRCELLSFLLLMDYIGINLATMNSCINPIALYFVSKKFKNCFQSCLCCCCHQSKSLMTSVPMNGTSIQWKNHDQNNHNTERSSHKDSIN
Description: In rabbit femoral artery vasculature, the receptor responsible for mediating the contractile activity of ET-1 appears to be predominantly the ETA receptor subtype, whereas in the rabbit pulmonary artery the contractile activity of ET-1 appears to be mediated by both ETA and ETB receptors.
In rabbit femoral and pulmonary arteries, ET-1 produced concentration-dependent increases in contractile tension starting at 1 nM.

[12] = Thermal properties, hygroscopicity and stability; type: physicochemical
[13] = anesthetized dogs, 30 or 60 mg/kg

CCc1cc(C2=C(C(=O)[O-])N(c3ccccc3C(F)(F)F)S(=O)(=O)c3ccccc32)cc2c1OCO2.[K+] [CI-1034, 4-(7-Ethyl-1,3-benzodioxol-5-yl)-2-[2-(trifluoromethyl)phenyl]-2H-1 ,2-benzothiazine-3-carboxylic acid 1,1-dioxide monopotassium salt]
IC50 [1]: 2 nM
Tmax ([2]; fasted state): 1.26 h
Tmax ([2]; with high-fat meal): 3.5 h
mean AUC(0-∞) lower with high-fat breakfast versus fasted ([2]; single dose): approximately 16%
mean Cmax lower with high-fat breakfast versus fasted ([2]; single dose): approximately 50%
ED50 ([3]; Rattus norvegicus, rats, PO, relative to hypoxic control, read-out: ED50, inhibition of acute pulmonary hypertensive response): 0.8 mg/kg
EC50 ([3]; Rattus norvegicus, simple Emax model, acute hypoxia, read-out: plasma concentration predicted to produce half-maximal effect): 0.03 ± 0.03 µg/mL
reduction of peak pulmonary hypertensive response at 4 hours ([3]; rats, 0.3 mg/kg PO 30 minutes before hypoxia (10% O2)): 34%±1%
reduction of peak pulmonary hypertensive response at 4 hours ([3]; rats, 3.0 mg/kg PO 30 minutes before hypoxia (10% O2)): 70%±3%
predicted maximal antihypertensive effect ([3]; simple Emax model, acute hypoxia): 81%±23%
peak pressor response to bET-1 challenge (MAP increase) ([4]; 30 mg/kg oral gavage 24 hours before bET-1 1 nmol/kg IV): 35±7 mm Hg
inhibition of the bET-1 pressor response compared to vehicle ([4]; 30 mg/kg oral gavage 24 hours before challenge, p<0.05): 39%
concentration at 15 min ([5]; 30 mg/kg): 221 µg/mL
concentration at 30 min ([5]; 30 mg/kg): 209 µg/mL
concentration at 60 min ([5]; 30 mg/kg): 157 µg/mL
concentration at 5 min ([5]; 40 mg/kg, 5 minutes postdose, N = 1): 395 µg/mL
concentration at 15 min ([5]; 40 mg/kg, N = 1): 327 µg/mL
concentration at 30 min ([5]; 40 mg/kg, N = 1): 267 µg/mL
concentration at 60 min ([5]; 40 mg/kg, N = 1): 230 µg/mL
concentration at 15 min ([5]; 60 mg/kg): 427 µg/mL
concentration at 30 min ([5]; 60 mg/kg): 367 µg/mL
concentration at 60 min ([5]; 60 mg/kg): 337 µg/mL
QTc intervals [6]: No prolonged QTc intervals
most frequent adverse events [6]: headache, somnolence, nausea, and dyspepsia
serious adverse events [6]: no treatment-related serious adverse events
changes in C-reactive protein ([6]; Study 1034-001): no significant changes
tolerance ([6]; single 400 mg dose with single 2-mg dose of midazolam syrup, Study 1034-005): well-tolerated
tolerance ([6]; single 150-mg doses with or without a high-fat breakfast, Study 1034-004): well-tolerated
tolerance ([6]; single doses up to 400 mg, Study 1034-001): well-tolerated
laboratory abnormalities ([6]; sporadic and transient): unrelated to CI-1034 administration
intensity of adverse reactions ([6]; transient): mild or moderate
pKa [7]: 3.9
concentration at 24 h [8]: 0.16 ± 0.01 µg/mL
effects on pulmonary function ([9]; anesthetized dog, 40 mg/kg intravenous, one animal): No effects were apparent
pulmonary finding ([9]; anesthetized dog, 180 mg/kg intravenous, within 5 minutes postdose, one animal): Respiratory arrest
effect on blood pressure [9, 13]: no significant effect
effect on minute volume, pulmonary resistance, or pulmonary compliance [9, 13]: no effect
histopathology, lungs ([9]; dog that died after 180 mg/kg): marked bilateral diffuse congestion
histopathology, coronary arteries ([9]; dog that died after 180 mg/kg, mild, primarily right coronary arteries): Arteriopathy
mortality ([9]; dog, 180 mg/kg intravenous, one animal): found dead on Day 3
plasma concentration versus dose ([10]; anesthetized dogs): increased proportionally with dose
Plasma Concentration ([10]; dog, 180 mg/kg, 5 minutes postdose, N = 1): 1960 µg/mL
exposure relative to projected human therapeutic Cmax of […] ([10]; dogs, 30 and 60 mg/kg, plasma 5 minutes postdose): at least 940 times
concentration at 5 min ([10]; dog, 30 mg/kg, 5 minutes postdose): 301 µg/mL
concentration at 5 min ([10]; dog, 60 mg/kg, 5 minutes postdose): 574 µg/mL
potency at blocking ETA versus ETB receptor signaling ([11]; isolated rabbit vasculature, femoral versus pulmonary artery KB): 389 fold
effect on ET-1 induced maximal contraction ([11]; rabbit femoral artery): not affected
Schild regression slope ([11]; rabbit femoral artery, r=0.99): 0.88
Hygroscopicity [12]: Hygroscopicity: CI-1034 is moderately hygroscopic.
Stability on storage ([12]; 4 weeks at 80° C. or 40° C. and 70% relative humidity): CI-1034 was stable for 4 weeks when stored at 80 °C or 40 °C and 70% relative humidity. CI-1034 does not need special storage requirements, other than the usual protection from light.
thermally stable up to ([12]; begins to melt with decomposition): Thermal Properties: CI-1034 is thermally stable up to approximately 300° C., where it begins to melt with decomposition.
Stability ([12]; exposed to hydrogen peroxide): No significant degradation
Stability ([12]; exposed to simulated sunlight): # peroxide. In contrast, samples exposed to simulated sunlight showed degradation.
Stability ([12]; heated in acid, base, or water, protected from light): stable

— US20020115661A1, “Method for treating chronic obstructive pulmonary disease” (priority 2000, published 2002)
